In PubChem BioAssay (NCI):
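Where inhibition never reached the appropriate level, the endpoint shown equals the highest concentration tested. Otherwise, values were interpolated linearly from a five-concentration, 48-hour dose response in 96-well plates. GI50 = concentration required for 50% inhibition of growth. TGI denotes the concentration required for complete inhibition of growth.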

Key:
Assay in all cases: inhibition of tumour cell growth, NCI panel, 48 h
ACHN renal = tested on: ACHN renal
786-0 renal = tested on: 786-0 renal
BT-549 breast = tested on: BT-549 breast
OVCAR-3 ovarian = tested on: OVCAR-3 ovarian
HT29 colon = tested on: HT29 colon
SW-620 colon = tested on: SW-620 colon
MALME-3M melanoma = tested on: MALME-3M melanoma
U251 CNS = tested on: U251 CNS
NCI/ADR-RES ovarian = tested on: NCI/ADR-RES ovarian
HL-60(TB) leukemia = tested on: HL-60(TB) leukemia
SR leukemia = tested on: SR leukemia
M14 melanoma = tested on: M14 melanoma
HCC-2998 colon = tested on: HCC-2998 colon
LOX IMVI melanoma = tested on: LOX IMVI melanoma
RXF 393 renal = tested on: RXF 393 renal
COLO 205 colon = tested on: COLO 205 colon
SF-539 CNS = tested on: SF-539 CNS
SF-268 CNS = tested on: SF-268 CNS
SK-MEL-5 melanoma = tested on: SK-MEL-5 melanoma
UACC-62 melanoma = tested on: UACC-62 melanoma
IGROV1 ovarian = tested on: IGROV1 ovarian
KM12 colon = tested on: KM12 colon
MDA-MB-435 = tested on: MDA-MB-435
HCT-116 colon = tested on: HCT-116 colon
MCF7 breast = tested on: MCF7 breast
NCI-H522 lung = tested on: NCI-H522 lung
DU-145 prostate = tested on: DU-145 prostate
OVCAR-8 ovarian = tested on: OVCAR-8 ovarian
NCI-H226 lung = tested on: NCI-H226 lung
HOP-92 NSCLC = tested on: HOP-92 NSCLC
SN12C renal = tested on: SN12C renal
CAKI-1 renal = tested on: CAKI-1 renal
UACC-257 melanoma = tested on: UACC-257 melanoma
A498 renal = tested on: A498 renal
TK-10 renal = tested on: TK-10 renal
NCI-H23 lung = tested on: NCI-H23 lung
SNB-19 CNS = tested on: SNB-19 CNS
A549 NSCLC = tested on: A549 NSCLC
MDA-MB-231 breast = tested on: MDA-MB-231 breast
RPMI-8226 leukemia = tested on: RPMI-8226 leukemia
HOP-62 NSCLC = tested on: HOP-62 NSCLC
NCI-H460 lung = tested on: NCI-H460 lung
PC-3 prostate = tested on: PC-3 prostate
UO-31 renal = tested on: UO-31 renal
HCT-15 colon = tested on: HCT-15 colon
SK-OV-3 ovarian = tested on: SK-OV-3 ovarian
OVCAR-4 ovarian = tested on: OVCAR-4 ovarian
HS 578T breast = tested on: HS 578T breast
SK-MEL-28 melanoma = tested on: SK-MEL-28 melanoma
MOLT-4 leukemia = tested on: MOLT-4 leukemia
CCRF-CEM leukemia = tested on: CCRF-CEM leukemia
T-47D breast = tested on: T-47D breast
OVCAR-5 ovarian = tested on: OVCAR-5 ovarian
K-562 leukemia = tested on: K-562 leukemia
SK-MEL-2 melanoma = tested on: SK-MEL-2 melanoma

Cc1nn(-c2nc3ccccc3[nH]2)c(N)c1-c1ccc(Cl)cc1
GI50 (ACHN renal): 4.6 µM
TGI (ACHN renal): > 100 µM
GI50 (786-0 renal): 8.31 µM
TGI (786-0 renal): > 100 µM
GI50 (BT-549 breast): 12.9 µM
TGI (BT-549 breast): > 100 µM
GI50 (OVCAR-3 ovarian): 7.66 µM
TGI (OVCAR-3 ovarian): > 100 µM
GI50 (HT29 colon): 4.35 µM
TGI (HT29 colon): 67.8 µM
GI50 (SW-620 colon): 4.58 µM
TGI (SW-620 colon): > 100 µM
GI50 (MALME-3M melanoma): 4.69 µM
TGI (MALME-3M melanoma): > 100 µM
GI50 (U251 CNS): 3.18 µM
TGI (U251 CNS): > 100 µM
GI50 (NCI/ADR-RES ovarian): 4.84 µM
TGI (NCI/ADR-RES ovarian): > 100 µM
GI50 (HL-60(TB) leukemia): 4.31 µM
TGI (HL-60(TB) leukemia): 25.1 µM
GI50 (SR leukemia): 3.63 µM
TGI (SR leukemia): > 100 µM
GI50 (M14 melanoma): 6.68 µM
TGI (M14 melanoma): > 100 µM
GI50 (HCC-2998 colon): 5.12 µM
TGI (HCC-2998 colon): > 100 µM
GI50 (LOX IMVI melanoma): 5.02 µM
TGI (LOX IMVI melanoma): > 100 µM
GI50 (RXF 393 renal): 4.26 µM
TGI (RXF 393 renal): 46.4 µM
GI50 (COLO 205 colon): 4.17 µM
TGI (COLO 205 colon): > 100 µM
GI50 (SF-539 CNS): 5.89 µM
TGI (SF-539 CNS): > 100 µM
GI50 (SF-268 CNS): 5.65 µM
TGI (SF-268 CNS): > 100 µM
GI50 (SK-MEL-5 melanoma): 4.08 µM
TGI (SK-MEL-5 melanoma): > 100 µM
GI50 (UACC-62 melanoma): 5.9 µM
TGI (UACC-62 melanoma): > 100 µM
GI50 (IGROV1 ovarian): 7.75 µM
TGI (IGROV1 ovarian): > 100 µM
GI50 (KM12 colon): 4.39 µM
TGI (KM12 colon): > 100 µM
GI50 (MDA-MB-435): 4.6 µM
TGI (MDA-MB-435): > 100 µM
GI50 (HCT-116 colon): 4.37 µM
TGI (HCT-116 colon): > 100 µM
GI50 (MCF7 breast): 4.31 µM
TGI (MCF7 breast): > 100 µM
GI50 (NCI-H522 lung): 4.04 µM
TGI (NCI-H522 lung): > 100 µM
GI50 (DU-145 prostate): 6.86 µM
TGI (DU-145 prostate): > 100 µM
GI50 (OVCAR-8 ovarian): 4.36 µM
TGI (OVCAR-8 ovarian): > 100 µM
GI50 (NCI-H226 lung): 8.66 µM
TGI (NCI-H226 lung): > 100 µM
GI50 (HOP-92 NSCLC): 3.28 µM
TGI (HOP-92 NSCLC): 75.4 µM
GI50 (SN12C renal): 5.52 µM
TGI (SN12C renal): > 100 µM
GI50 (CAKI-1 renal): 8.82 µM
TGI (CAKI-1 renal): > 100 µM
GI50 (UACC-257 melanoma): 2.63 µM
TGI (UACC-257 melanoma): 55.8 µM
GI50 (A498 renal): 3.02 µM
TGI (A498 renal): > 100 µM
GI50 (TK-10 renal): 4.51 µM
TGI (TK-10 renal): > 100 µM
GI50 (NCI-H23 lung): 5.23 µM
TGI (NCI-H23 lung): > 100 µM
GI50 (SNB-19 CNS): 4.14 µM
TGI (SNB-19 CNS): > 100 µM
GI50 (A549 NSCLC): 2.9 µM
TGI (A549 NSCLC): > 100 µM
GI50 (MDA-MB-231 breast): 4.5 µM
TGI (MDA-MB-231 breast): > 100 µM
GI50 (RPMI-8226 leukemia): 4.37 µM
TGI (RPMI-8226 leukemia): > 100 µM
GI50 (HOP-62 NSCLC): 7.29 µM
TGI (HOP-62 NSCLC): > 100 µM
GI50 (NCI-H460 lung): 2.96 µM
TGI (NCI-H460 lung): > 100 µM
GI50 (PC-3 prostate): 2.97 µM
TGI (PC-3 prostate): > 100 µM
GI50 (UO-31 renal): 3.79 µM
TGI (UO-31 renal): > 100 µM
GI50 (HCT-15 colon): 3.88 µM
TGI (HCT-15 colon): > 100 µM
GI50 (SK-OV-3 ovarian): 7.4 µM
TGI (SK-OV-3 ovarian): > 100 µM
GI50 (OVCAR-4 ovarian): 5.1 µM
TGI (OVCAR-4 ovarian): > 100 µM
GI50 (HS 578T breast): 9.24 µM
TGI (HS 578T breast): > 100 µM
GI50 (SK-MEL-28 melanoma): 20.9 µM
TGI (SK-MEL-28 melanoma): > 100 µM
GI50 (MOLT-4 leukemia): 3.54 µM
TGI (MOLT-4 leukemia): > 100 µM
GI50 (CCRF-CEM leukemia): 2.92 µM
TGI (CCRF-CEM leukemia): > 100 µM
GI50 (T-47D breast): 3.42 µM
TGI (T-47D breast): > 100 µM
GI50 (OVCAR-5 ovarian): 46.7 µM
TGI (OVCAR-5 ovarian): > 100 µM
GI50 (K-562 leukemia): 3.55 µM
TGI (K-562 leukemia): > 100 µM
GI50 (SK-MEL-2 melanoma): 5.88 µM
TGI (SK-MEL-2 melanoma): > 100 µM
